Laboratory results reported in US20250381307A1, “RETRO-AAV AND USE IN TREATING NEURODEGENERATIVE DISEASES” (priority 2023, published 2025).

How the values were obtained:
rM3Ds = molecular target: T1, rM3Ds (Rattus norvegicus, UniProt P08483, A177S/A238G/A489L/DEL261-437/DEL441-478/E258S/I253V/I483M/INS256[…]/K178L/K182A/K255R/K484R/K486H/L173F/L482A/M480V/R171S/R176Q/R179M/S481M/T174R/T181R/T257A/Y148C); assay: Slice whole-cell recordings of rM3Ds-transduced MSNs; format: cell-based, mice; details: AAV8R12-G88P7-rM3Ds-2A-EYFP
T1 construct: rM3Ds; 2A-EYFP (C); host or cells: AAV8R12-transduced striatal D1-MSNs of mice and cynomolgus macaques (in vivo and acute slices)
Text: Mice from different groups were anesthetized with […] isoflurane, and then decapitated. The brain was quickly extracted and placed in ice-cold N-methyl-D-glucamine (NMDG) cutting solution containing (in mM): 92 NMDG, 2.5 KCl, 25 NaHCO3, 1.25 NaH2PO4, 4.5 D-Glucose, 20 HEPES, 5 L-ascorbic acid, 3 Na-pyruvate, 2 Thiourea, 10 MgSO4, 0.5 CaCl2). The pH was adjusted to 7.2±0.1 using HCl and the osmolarity was adjusted to 305±5 mosmol/L using NMDG. The solution was bubbled with 95% O2/5% CO2 prior to use. Coronal striatum slices were cut in 250-[…]m thickness with a vibratome slicer (Leica, VT1200 S), and then incubated in artificial cerebrospinal fluid (aCSF) saturated with 95% O2/5% CO2 for at least 45 min at 37° C. before recording. The aCSF contains (in mM) 125 NaCl, 1.25 KCl, 25 NaHCO3, 1.25 KH2PO4, 25 D-Glucose, 2 CaCl2) and 1 MgCl2, supplemented with 2 mM Na-pyruvate, 3 mM Myo-inositol and 0.4 mM L-ascorbic acid.
The acute striatum slice was transferred to the recording chamber with a constant perfusion of oxygenized aCSF at the rate of 3 ml/min. Neurons were visualized using an upright microscope (Olympus, BX-51) with a 40×water immersion objective at room temperature (˜25° C.). […] Neurons were quickly visualized under fluorescence microscope and then patch clamp were achieved under infrared light illumination and CCD camera. […]

hM3Dq = hM3Dq (Homo sapiens, UniProt P20309, A239G/Y149C); assay: In vivo electrophysiological recording in caudate, hM3Dq macaques, CNO infusion into dorsomedial caudate; design: host or cells: AAV8R12-transduced neurons (striatal D1-MSNs, some SNr neurons) of mice and macaques
Method: Electrophysiological recording was performed through a recording chamber while the monkey was anesthetized. Neural responses were recorded by a 16-channel linear probe (Plexon Inc, Uprobe) driven by a mechanical microdrive (Alpha Omega, FlexMT). Signals were passed through a head stage (Plexon Inc, HST/16V-G20 LN) and then split and filtered between 300 Hz and 5 kHz to identify spiking activity with an amplifier system (Plexon Inc, OmniPlex). Detected spikes were then sorted by commercially available software (Plexon Inc, Offline Sorter) for further analysis. To quantify the effect of CNO/DCZ injection, neural activity was recorded for 60 minutes following CNO/DCZ injection. The response time-course for each channel was obtained by counting the spikes within every 10-minute window and then normalizing to the maximal.
To determine the effect of CNO/DCZ injection on the direction of signal change, we performed Pearson correlation between neural responses and time using the ‘corr’ function in Matlab, which generates the correlation coefficient ‘r’ and significant level ‘p’. A neuron was considered to have “Increased” activity when r>0 and p<0.05; and considered to have “Decreased” activity when r<0 and p<0.05. Otherwise, neurons were considered to be “Unchanged” in their neural activities. The responses of all increased neurons were then averaged after being normalized by the maximal response (Crowe et al., 2014; Dai and Wang, 2018; Hirokawa et al., 2019) following CNO/DCZ injection, and then plotted as a function of time to generate the normalized population response.

hM3Dq, sequence (P20309 whole entry Y149C/A239G, the tested form may be a part): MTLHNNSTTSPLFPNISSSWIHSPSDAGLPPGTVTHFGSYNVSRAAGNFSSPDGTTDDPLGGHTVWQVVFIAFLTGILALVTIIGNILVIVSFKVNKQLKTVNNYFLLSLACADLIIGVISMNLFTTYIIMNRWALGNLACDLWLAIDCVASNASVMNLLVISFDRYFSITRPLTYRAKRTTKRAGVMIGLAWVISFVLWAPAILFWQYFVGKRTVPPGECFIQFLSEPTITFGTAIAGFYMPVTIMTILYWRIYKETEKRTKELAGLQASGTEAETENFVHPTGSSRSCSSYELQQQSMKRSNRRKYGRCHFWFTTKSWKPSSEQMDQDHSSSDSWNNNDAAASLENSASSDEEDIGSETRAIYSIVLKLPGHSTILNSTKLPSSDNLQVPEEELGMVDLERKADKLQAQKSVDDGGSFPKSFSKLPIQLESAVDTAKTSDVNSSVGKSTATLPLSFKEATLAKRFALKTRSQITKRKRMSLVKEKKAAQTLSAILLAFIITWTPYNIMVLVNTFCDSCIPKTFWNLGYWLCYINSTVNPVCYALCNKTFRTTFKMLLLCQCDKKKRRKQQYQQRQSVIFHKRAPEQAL
T1 sequence (P08483 other isoform, or with tags, fused parts or gaps with the stated changes): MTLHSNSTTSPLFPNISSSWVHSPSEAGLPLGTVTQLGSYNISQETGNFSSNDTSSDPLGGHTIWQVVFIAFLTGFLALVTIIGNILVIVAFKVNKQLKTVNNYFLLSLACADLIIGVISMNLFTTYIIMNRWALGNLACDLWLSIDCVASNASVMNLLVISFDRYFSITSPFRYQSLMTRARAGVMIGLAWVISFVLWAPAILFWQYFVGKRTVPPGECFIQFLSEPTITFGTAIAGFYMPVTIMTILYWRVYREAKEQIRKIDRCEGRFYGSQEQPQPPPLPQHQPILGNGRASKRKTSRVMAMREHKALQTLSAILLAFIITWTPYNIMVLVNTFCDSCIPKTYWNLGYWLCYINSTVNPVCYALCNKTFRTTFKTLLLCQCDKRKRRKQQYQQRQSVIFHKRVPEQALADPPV

## C[N+]1([O-])CCN(C2=Nc3cc(Cl)ccc3Nc3ccccc32)CC1 [CNO, clozapine N-oxide]
rM3Ds; 6-OHDA mice, not with AAV8R12-G88P7-EYFP
  excitability of D1-MSNs in parkinsonian mice: increased excitability
rM3Ds; CNO 10 μM, no effect on basal firing rate or resting membrane potential
  excitability of labeled striatal MSNs: enhancement in the excitability
hM3Dq; 34 total cells, saline 18.8%
  caudate cells activated (FIG. 12L): 67.6%
hM3Dq; 34 total cells, saline 40.6%
  caudate cells inactivated (FIG. 12L): 2.9%
  caudate cells unchanged (FIG. 12L): 29.4%
hM3Dq; monkey CM045, 34 cells
  caudate cells activated (FIG. 12C): 70.6%
  caudate cells inactivated (FIG. 12C): 8.8%
  caudate cells unchanged (FIG. 12C): 20.6%
